Here are results for twelve compounds from ChEMBL document CHEMBL1134259, “Antitumor agents. Part 204: synthesis and biological evaluation of substituted 2-aryl quinazolinones” (Bioorg Med Chem Lett, 2001).

Series [1] concerns Tumor cell line. Nature of the series: Tested for inhibitory activity against growth of about half of NCI's drug screen tumor cell lines at subnanomolar concentrations. In kind it is functional. To be noted: read-out: Log TGI (converted).
The subject of series [2] is HCT-8. Put plainly: In vitro effective concentration required to reduce the number of human ileocecal carcinoma (HCT-8) after 3-day incubation. Type of series: functional. To be noted: for EC50: HCT-8, 72 h, read-out: ED50 (the source's name).
Series [3] concerns the target Tubulin. Put plainly: Inhibitory concentration required against tubulin polymerization in the antimicrotubule activity test. Type of series: functional.
Series [4] deals with A549. Nature of the series: In vitro effective concentration required to reduce the number of human lung carcinoma (A-549) after 3-day incubation. In kind it is functional. To be noted: A549, 72 h, read-out: ED50 (the source's name).
The subject of series [5] is 1A9. Nature of the series: In vitro effective concentration required to reduce the number of human ovarian cancer (1A9) after 3-day incubation. Type of series: functional. To be noted: for EC50: 1A9, 72 h, read-out: ED50 (the source's name).
Series [6] relates to MCF7. Nature of the series: In vitro effective concentration required to reduce the number of human breast cancer (MCF-7) after 3-day incubation. In kind it is functional. To be noted: for EC50: 72 h, read-out: ED50 (the source's name).
The subject of series [7] is SK-MEL-2. Nature of the series: In vitro effective concentration required to reduce the number of human melanoma cancer (SKMEL-2) after 3-day incubation. In kind it is functional. To be noted: SK-MEL-2, 72 h, read-out: ED50 (the source's name).
For series [8], the system named is KB. Put plainly: In vitro effective concentration required to reduce the number of P-glycoprotein-expressing human epidermoid carcinoma cells (KB-VIN) of nasopharynx after 3-day incubation. To be noted: 72 h, read-out: ED50 (the source's name). Type of series: functional.
Series [9] has as its system KB. Nature of the series: In vitro effective concentration required to reduce the number of Human epidermoid carcinoma cells (KB) of nasopharynx after 3-day incubation. Type of series: functional. To be noted: 72 h, read-out: ED50 (the source's name).
The nature of series [10]: Therapeutic index (IC50/EC50) was determined; Did not dissolve.
The test system of series [11] is H9. Nature of the series: Concentration required to inhibit uninfected H9 cell growth when tested for anti-HIV activity. Type of series: functional, cell-based. To be noted: Homo sapiens.
A short description of series [12]: Therapeutic index (IC50/EC50) was determined. To be noted: read-out: Therapeutic index.
Series [13] concerns H9. Nature of the series: Concentration required to inhibit viral replication in acutely infected H9 lymphocytes when tested for anti-HIV activity. To be noted: Homo sapiens. In kind it is functional, cell-based.
The subject of series [14] is HCT-8. Nature of the series: In vitro effective concentration required to reduce the number of human ileocecal carcinoma cells(HCT-8) after 3-day incubation. Type of series: functional. To be noted: HCT-8, 72 h, read-out: ED50 (the source's name).
The subject of series [15] is SK-MEL-2. Put plainly: In vitro effective concentration required to reduce the number of human melanoma cancer cells (SKMEL-2) after 3-day incubation. In kind it is functional. To be noted: SK-MEL-2, 72 h, read-out: ED50 (the source's name).
For series [16], the system named is A549. Put plainly: In vitro effective concentration required to reduce the number of human lung carcinoma cells (A-549) after 3-day incubation. In kind it is functional. To be noted: A549, 72 h, read-out: ED50 (the source's name).
The test system of series [17] is 1A9. Nature of the series: In vitro effective concentration required to reduce the number of human ovarian cancer cells (1A9) after 3-day incubation. Type of series: functional. To be noted: 1A9, 72 h, read-out: ED50 (the source's name).
In series [18] the test system is MCF7. Nature of the series: In vitro effective concentration required to reduce the number of human breast cancer cells (MCF-7) after 3-day incubation. To be noted: MCF7, 72 h, read-out: ED50 (the source's name). Type of series: functional.

In brackets after ≈: the same amount, converted by molar mass. Activity calls are given as the source filed them. The calls are words filed in the database; no cut-off is given here.

In general, TGI refers to the concentration giving total growth inhibition. Consider `COc1cccc(-c2cc(O)c3cc(N4CCCC4)ccc3n2)c1`, for which the TGI in series [1] is < 0.001 µM.
Usually IC50 stands for the concentration at which inhibition is half-maximal. Lower therefore signals inhibition by little substance. As for `COc1cccc(-c2nc(O)c3ccccc3n2)c1`, the EC50 in series [2], in [4], in [6], in [7] and in [8] was > 20 µg/mL in each case. Also, in series [3], the IC50 was found to be 8.6 µM. In addition, the ED50 result in series [5] is “inactive”.
On to `COc1cc2nc(-c3ccc(F)cc3)nc(O)c2cc1OC`, for which the EC50 in [2] is > 20 µg/mL; in series [4], > 20 µg/mL; in series [5], 16 µg/mL (≈ 53.3 µM); in series [9], > 20 µg/mL; in series [6], 19.8 µg/mL (≈ 65.9 µM); in series [7], > 20 µg/mL. Also, the EC50 in series [8] was > 20 µg/mL. Also, the IC50 in [3] was > 40 µM. In addition, the Therapeutic index result in series [10] is “Did not dissolve”.
With `COc1cccc(-c2nc(O)c3cc(OC)ccc3n2)c1`, the EC50 in series [2] was > 40 µg/mL; in [4] it was 28.1 µg/mL (≈ 99.5 µM); in series [5], 4.7 µg/mL (≈ 16.6 µM); in series [9], 1.98 µg/mL (≈ 7.01 µM); in series [6] it was 37.5 µg/mL (≈ 133 µM); in series [7], > 40 µg/mL. The same compound displayed an IC50 in series [3] of 4.9 µM.
In the case of `COc1cc2nc(-c3ccc4ccccc4c3)nc(O)c2cc1OC`, the EC50 in series [2] was > 10 µg/mL; in series [4], 8 µg/mL (≈ 24.1 µM); in series [5] it was 7.8 µg/mL (≈ 23.5 µM); in series [9], 7.3 µg/mL (≈ 22 µM); in series [13], 7.59 µM; in [6], 6.6 µg/mL (≈ 19.9 µM). Moreover, the EC50 was 8.5 µg/mL (≈ 25.6 µM) in series [7] and 1.6 µg/mL (≈ 4.81 µM) in series [8]. The IC50 is > 40 µM in series [3] and 100 µM in [11]. In series [12], the selectivity ratio was determined as 13.2.
As for `COc1cccc(-c2nc(O)c3cc(OC)c(OC)cc3n2)c1`, the EC50 is > 20 µg/mL in series [2]; > 20 µg/mL in series [4]; 17.5 µg/mL (≈ 56 µM) in [5]; > 20 µg/mL in series [9]; 14.5 µg/mL (≈ 46.4 µM) in series [6]; 19 µg/mL (≈ 60.8 µM) in [8]. Further, the IC50 in [3] amounted to 6.5 µM.
For the compound `Oc1nc(-c2ccc(F)cc2)nc2ccccc12`, the ED50 result in [2] is “inactive”. Further, the IC50 is > 40 µM in [3] and 38.8 µM in series [11]. Moreover, the EC50 was 7.5 µg/mL (≈ 31.2 µM) in series [4]; > 20 µg/mL in series [5]; > 20 µg/mL in [9]; 9.18 µM in [13]; > 20 µg/mL in series [6]; > 20 µg/mL in series [7]. Moreover, the EC50 in series [8] was 6.5 µg/mL (≈ 27.1 µM). Also, the selectivity ratio in series [12] was 4.22.
With `Oc1nc(-c2ccccc2F)nc2ccccc12`, the EC50 in series [14] was > 20 µg/mL; in series [15], > 20 µg/mL; in [16], > 20 µg/mL; in series [9], > 20 µg/mL; in series [17], 17.1 µg/mL (≈ 71.2 µM); in [18] it was > 20 µg/mL. The EC50 in series [8] amounted to 17.5 µg/mL (≈ 72.8 µM). In [3], the IC50 is > 40 µM. Moreover, the Therapeutic index entry in [10] is on record as “Did not dissolve”.
With `Oc1nc(-c2cccc(F)c2)nc2ccccc12`, in [2], the ED50 result was “inactive”. Further, the IC50 in series [3] was > 40 µM; in series [11], 30.7 µM. Moreover, the EC50 in [4] is 9.8 µg/mL (≈ 40.8 µM); in series [5] it was > 20 µg/mL; in [9], > 20 µg/mL; in [13], 9.53 µM; in series [6], > 20 µg/mL; in series [7], > 20 µg/mL. Besides, in series [8], the EC50 came out at 8.5 µg/mL (≈ 35.4 µM). In series [12], the selectivity ratio was determined as 3.22.
For `Oc1nc(-c2ccc3ccccc3c2)nc2ccccc12`, the EC50 in [2] was found to be 19.1 µg/mL (≈ 70.1 µM); in series [4], 14.4 µg/mL (≈ 52.9 µM); in series [5], 8 µg/mL (≈ 29.4 µM); in series [9] it was 12.5 µg/mL (≈ 45.9 µM); in series [6] it was 10.3 µg/mL (≈ 37.8 µM); in series [7], 13 µg/mL (≈ 47.7 µM). The EC50 in [8] worked out at 6 µg/mL (≈ 22 µM). Moreover, in series [3], the IC50 is > 40 µM. The Therapeutic index result in series [10] was “Did not dissolve”.
For the compound `COc1cc2nc(-c3cccc(F)c3)nc(O)c2cc1OC`, the EC50 in [2], in series [4], in series [5], in series [7] and in series [8] was > 20 µg/mL in each case. Besides, in series [3], the half-maximal inhibitory concentration (IC50) was > 40 µM. In addition, the Therapeutic index entry in series [10] is reported as “Did not dissolve”. Further, the ED50 entry in series [6] is “inactive”.
On to `COc1cc2nc(-c3ccccc3F)nc(O)c2cc1OC`, for which the EC50 was 17 µg/mL (≈ 56.6 µM) in series [2]; < 5 µg/mL in series [4]; > 20 µg/mL in series [5]; < 5 µg/mL in [9]; 10.9 µM in series [13]; 13.1 µg/mL (≈ 43.6 µM) in [6]. Also, the EC50 in series [7] and in series [8] was < 5 µg/mL in each case. In addition, the IC50 in [3] was > 40 µM; in series [11], 100 µM. For the same compound, the selectivity ratio in [12] was 9.17.
